Measured values reported in patent US7803949B2, “Process for preparation of water-soluble azole prodrugs” (Eisai R&D Management Co., Ltd., priority 2005, dated 2010).
Counter-ions that a name gives are not always drawn.

Assay: hygroscopicity by the micro balance method (Gravimetric Vapour Sorption System DVS-1)
Type: physicochemical
Conditions: FIG. 2 (A); temperature 25.1° C.
Excerpt: Next, it will be illustrated that although Compound (IV) prepared according to the present invention is a mono lysine salt, it has excellent […] in a comparison with a dilysine salt. Note that, a dilysine salt can be prepared by the methods disclosed in Published Japanese Translation of a PCT Application No. 2003-520235. […] Note that, the measurement instrument used in the micro balance method was the following apparatus:
Gravimetric Vapour Sorption System (Model DVS-1 Surface Measurement System).

With C[C@@H](c1nc(-c2ccc(C#N)cc2)cs1)[C@@](Cn1cncn1)(OCOP(=O)(O)O)c1ccc(F)cc1F [mono lysine salt] the “relative humidity at which moisture absorption phenomenon was observed” value was 70 % RH.
